Measurements published in patent US5208364A, “Antibiotic 5-lipoxygenase inhibitors” (Bristol-Myers Squibb Co., priority 1992, dated 1993).

Legend:
rat 5-LPO = biological target: T1, rat 5-LPO (Rattus norvegicus, UniProt P12527); experiment: 5-LPO inhibitory activity (5-HETE produced in cell-free extract of rat basophilic leukemia RBL-1 cells, HPLC); assay type: biochemical; conditions: arachidonic acid substrate, 37° C., 5 minutes
T1 construct: produced in a cell-free extract of rat basophilic leukemia cells; endogenous in cells; host or cells: RBL-1 rat basophilic leukemia cells (ATCC CRL 1378), cell-free extract
T1 sequence (P12527 1-673): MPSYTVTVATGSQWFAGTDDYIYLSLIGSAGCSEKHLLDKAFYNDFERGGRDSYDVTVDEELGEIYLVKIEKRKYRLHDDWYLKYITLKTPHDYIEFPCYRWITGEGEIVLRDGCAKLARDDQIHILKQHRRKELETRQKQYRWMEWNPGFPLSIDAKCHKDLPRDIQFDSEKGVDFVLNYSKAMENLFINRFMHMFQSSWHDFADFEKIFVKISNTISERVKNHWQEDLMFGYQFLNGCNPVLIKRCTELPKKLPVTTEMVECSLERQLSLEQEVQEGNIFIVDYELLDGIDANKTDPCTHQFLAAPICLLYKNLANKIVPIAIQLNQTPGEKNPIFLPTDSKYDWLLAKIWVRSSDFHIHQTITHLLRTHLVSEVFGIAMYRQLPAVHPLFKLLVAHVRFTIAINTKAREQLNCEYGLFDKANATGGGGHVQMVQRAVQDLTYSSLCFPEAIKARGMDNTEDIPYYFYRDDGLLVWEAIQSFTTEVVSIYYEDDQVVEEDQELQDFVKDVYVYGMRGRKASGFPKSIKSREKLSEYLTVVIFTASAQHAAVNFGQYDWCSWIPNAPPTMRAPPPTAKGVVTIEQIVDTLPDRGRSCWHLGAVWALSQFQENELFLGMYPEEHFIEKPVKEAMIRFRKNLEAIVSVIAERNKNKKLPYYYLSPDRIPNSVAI
Method: The assay method employed in this manuscript is a slight modification of that published by Hook, Yacobuci, O'Connor, Lee, Kerns, Krishnan, Matson and Hesler in "Identification of the inhibitory activity of carbazomycins B and C against 5-lipoxygenase: a new activity for these compounds", J. Antibiot. (1990) 43, 1347. Rat basophilic leukemia cells […]. They were harvested by centrifugation and washed twice with […] containing I mM EDTA. The cells were resuspended in the same buffer and sonicated. The suspension was centrifuged at 13,000×g to remove cell debris and the supernatant stored at -80° C.
Enzyme assays were conducted by diluting the cell-free extract to the desired specific enzyme activity with phosphate buffer saline (PBS) containing 28.5 mM phosphate, 1 mM ethylenediamine tetraacetic acid (EDTA), 0.9 mM adenosine triphosphate (ATP) and 0.9 mM glutathione. The cell-free extract solution (110 μ1) was preincubated at 37° C. for 2.5 minutes, followed by the addition of the test sample in 20 μl of DMSO-PBS (1:9, v/v). The reaction was started by the addition of 5 μl of substrate (2 mM arachidonic acid plus 25 mM CaC12 in ethanol-water, 3:1). After incubation for 5 minutes, the reaction was terminated by the addition of 135 μl of ethanol and the solution centrifuged to remove precipitated protein. The 5-hydroxyeicosatetraenoic acid (5-HETE) in the supernatant was analyzed by HPLC as described below.
The inhibitory effect of a fermentation broth extract or a purified preparation was determined by measuring the amount of 5-hydroxyeicosatetraenoic acid (5-HETE) produced in a cell-free extract of rat basophilic leukemia cells (RBL-I cells, ATCC CRL 1378) in the presence of a test sample, arachidonic acid, adenosine triphosphate, CaC12 and glutathione. […] The concentration of 5-HETE was spectrophotometrically measured at 230 nm with a Gilson 115 UV detector and a Hewlett Packard 3396 A integrator.

[1] = Solubility (physico-chemical properties); assay type: physicochemical

| SMILES | IC50 (rat 5-LPO) [µM] | solubility in methanol, ethanol, ethyl acetate, chloroform and dimethyl sulfoxide [1] | solubility in n-hexane [1] | solubility in water [1] |
| --- | --- | --- | --- | --- |
| CC(C)CCCCCCCCCOC(=O)c1cc(O)ccc1N [Compound IC, Isolauryl 5-hydroxyanthranilate] | 6.3 | soluble | slightly soluble | insoluble |
| CC(C)CCCCCCCOC(=O)c1cc(O)ccc1N [IA, Isodecyl 5-hydroxyanthranilate] | 3.4 | soluble | slightly soluble | insoluble |
| CC(C)CCCCCCCCOC(=O)c1cc(O)ccc1N [IB, Isoundecyl 5-hydroxyanthranilate] | 4.9 | soluble | slightly soluble | insoluble |
